From patent US20250213587A1, “ITK INHIBITORS FOR INCREASING TH1 CELL ACTIVITY” (Corvus Pharmaceuticals, Inc., priority 2022, published 2025)
pIC50: −log10 of the molar value. Entries after “also recorded” stand apart in the source; their conditions may differ.

How the values were obtained:
[1] = test system: S6 phosphorylation; assay: pS6 flow cytometry after CD3/28 crosslinking; type: cell-based; conditions: Homo sapiens, mean of three donors
Method: PBMCs were pelleted (400×g at 4° C. for 5 minutes) and resuspended in RPMI+10% heat-inactivated fetal bovine serum (FBS) at 14.3×10^6 cells/mL; 70 μL (1×10^6 cells) were plated in a 96 well U bottom plate and incubated at 37° C. for 1 hour. […] CD3-biotin and CD28-biotin were prepared together at 10 μg/mL each, which is 10× the final concentration; 10 μL antibodies were added to the cells and incubated at 37° C. for 15 minutes. Avidin was prepared at 500 μg/mL, which is 10× the final concentration; 10 μL avidin were added to the cells and incubated at 37° C. for 5 minutes to induce TCR crosslinking. A total volume of 100 μL cells were transferred to 200 μL warm 2.4% paraformaldehyde (PFA) in deep well blocks. Pipetting was performed using a liquidator 96 to add reagents to the entire plate with uniform timing. Cells were fixed with PFA at 37° C. for 10 minutes. Cells were pelleted (1000× g for 5 minutes), and the plate was aspirated leaving approximately 100 μL residual volume. The plate was then vigorously vortexed for 10 seconds, and 1 mL −20° C. methanol was added to each well. Cells were stored at […] for approximately 1 month. […] Inhibition was measured by construction of a concentration response curve of the Log base 10 transformed values of the molar concentration of inhibitor. […]

[2] = biological target: T1, ITK Cys-442 (Homo sapiens, UniProt Q08881); assay: Mass spectrometry of chymotryptic digest of inhibited ITK; type: binding; conditions: LC MS/MS, 5-fold molar excess
T1 construct: The protein construct comprised amino acids 2 to 620 of ITK; purchased Cama Bioscience (so in the source)
T1 sequence (Q08881 2-620): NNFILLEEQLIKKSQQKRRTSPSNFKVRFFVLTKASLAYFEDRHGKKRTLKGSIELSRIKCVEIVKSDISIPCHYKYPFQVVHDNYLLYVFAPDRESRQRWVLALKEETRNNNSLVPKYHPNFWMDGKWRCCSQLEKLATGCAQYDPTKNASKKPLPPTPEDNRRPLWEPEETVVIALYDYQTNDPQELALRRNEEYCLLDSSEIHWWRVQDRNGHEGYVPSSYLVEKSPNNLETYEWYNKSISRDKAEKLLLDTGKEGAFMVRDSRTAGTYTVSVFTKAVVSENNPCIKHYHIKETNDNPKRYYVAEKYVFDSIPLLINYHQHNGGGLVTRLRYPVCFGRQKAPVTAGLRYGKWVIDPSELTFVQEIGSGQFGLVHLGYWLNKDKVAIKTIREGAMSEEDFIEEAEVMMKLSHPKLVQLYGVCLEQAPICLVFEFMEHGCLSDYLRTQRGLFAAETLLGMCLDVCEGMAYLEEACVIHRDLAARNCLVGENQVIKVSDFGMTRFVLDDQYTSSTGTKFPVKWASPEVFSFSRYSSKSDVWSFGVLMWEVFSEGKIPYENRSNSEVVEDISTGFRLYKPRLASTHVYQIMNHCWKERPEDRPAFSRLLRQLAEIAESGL
Method: ITK was obtained as a glutathione S transferase (GST) fusion protein from Cama Bioscience (Product Number 08 081, Lot 13CBS 0356K). The protein was supplied at 586 μg/mL (5.9 μM ITK) in 50 mM TRIS, 150 mM NaCl, 0.05% Brij35, 1 mM dithiothreitol, and 10% glycerol at pH 7.5. The protein construct comprised amino acids 2 to 620 of ITK and is fused to GST at the N terminus of ITK (ITK GST). To prepare the samples for mass spectral analysis, a 2 μM sample of the ITK GST fusion protein was incubated with a 5-fold molar excess of CPI 818 (10 μM). A control, untreated sample of ITK GST was prepared in parallel. […] After the incubation phase, samples were frozen and stored at −80° C. Mass spectral analysis was conducted in collaboration with the Stanford University mass spectrometry facility. The control, untreated ITK GST fusion protein, and the CPI 818 inhibited sample were subjected to chymotrypsin digestion and then analyzed by liquid chromatography coupled with tandem mass spectrometry (LC MS/MS). […] Ions electrosprayed from this column were detected using an Orbitrap Fusion mass spectrometer (Thermo Scientific, San Jose, CA) operated in a data dependent fashion using both ETD and HCD fragmentation to improve detection efficiency of modified peptides. […] Peptides were constrained to 12 ppm mass accuracy for precursor ions, and 0.4 Da mass accuracies for fragment ions detected in the ion trap. […]

[3] = test system: colitis in C.B-17 SCID mice; assay: Mouse T cell adoptive transfer colitis model; type: in vivo
Method: To enable long-term dosing in animal studies, a CPI-818-formulated mouse diet (300 mg/kg/day), and a control diet, with macronutrient levels matching the common Teklad 2018 diet were created (Research Diets, Inc.). Adequate drug exposure was confirmed by standard LC-MS method in plasma samples. Female BALB/c mice (11-12 weeks old) and female Fox Chase C.B-17 severe combined immunodeficient (SCID) mice (6-7 weeks old) were purchased from Charles River Laboratories. […] A third group on control diet was treated weekly via intraperitoneal (IP) route with 0.5 mg/mouse of anti-IL-12 p40 (clone C17.8) (BioXcell BE0051). On study day 0, SCID mice were injected IP with 4×10^5 CD4^+CD45RB^hi splenic T cells from BALB/c mice. On study day 48, animals were sacrificed. Colons were harvested for measurements. The distal section was preserved in 10% neutral buffered formalin, embedded into paraffin blocks, and sent to HistoTox Labs, Inc. for histologic analyses. Therapeutic efficacy was based on body weights, colon weights, and colon lengths. This study was carried out at Bolder BioPATH, Inc. in accordance with the test facility standard operating procedures, the World Health Organization Quality Practices in Basic Biomedical Research guidelines, and in compliance with all state and federal regulations.
Each slide containing 3 cross sections of the distal colon from each animal was stained with hematoxylin and eosin (H&E), or with an anti-CD3 antibody, and evaluated by a board-certified veterinary pathologist blinded to treatment information. Histologic lesions in H&E-stained slides were scored separately for severity 0-5, where 0=absent, 1=minimal, 2=mild, 3=moderate, 4=marked, 5=severe. Anti-CD3-stained slides were scanned using an Aperio AT2 whole slide scanner. Exclusions were applied to remove debris and tissue artifacts from the analyzed area. An algorithm was applied to the samples using Visiopharm (VIS) image analysis software. A count-based thresholding method was utilized to determine positivity of each pixel on the slide. The average of the three colon samples per slide was taken to determine both the number of immunolabeled CD3 cells and the total area of the colon. The output images underwent a quality control check after analysis was complete. CD3-immunolabeled cell density was calculated per 10,000 μm^2 using the following formula: […]
The body weights over time between two groups of animals were compared using the two-way analysis of variance (2-way ANOVA) method. Organ weights or lengths were compared using a Student's unpaired, two-tailed, t-test with Welch's correction. All statistical analyses were performed using Prism Version 8.3.0 (GraphPad Software).

pIC50 [1]: 7.02 | covalent modification of ITK peptides [2]: covalently labeling Cys-442
SMILES: C=CC(=O)N1CCCN(C(=O)c2cc(Sc3cnc(NC(=O)C4CC4)s3)c(C)cc2OC)C[C@H]1C [CPI-818]
protection from colitis (diarrhea, weight loss) ([3]; diet 300 mg/kg/day from one week before transfer): protected from colitis | infiltration of CD3+ T cells in colon ([3]; histology): blocked the infiltration of CD3^+ T cells; also recorded: prevented infiltration of CD3+ T cells | severity of histologic lesions ([3]; inflammation, mucosal necrosis, epithelial hyperplasia, submucosa edema): significantly reduced the severity | colon weights and lengths ([3]; necropsy 7 weeks post-transfer): within the ranges of naïve animals
